This assay deals with P388 leukemia ip, CD2F1 mice, survival T/C. In words: NCI In Vivo Anticancer Drug Screen. Data for tumor model P388 Leukemia (intraperitoneal) in CD2F1 (CDF1) mice. The settings on record: endpoint: median survival time, higher = longer survival. In a few lines:
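Mice carrying the transplanted tumor received test compound or vehicle. Survival was recorded in each group, and the value is the treated-group measurement divided by that of the vehicle-treated control group.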

Where [1] appears, read: dose: 60.0 mg/kg/injection, schedule: Q01DX005 (ip), vehicle: saline with Tween-80.
Where [2] appears, read: dose: 120.0 mg/kg/injection, schedule: Q01DX005 (ip), vehicle: saline with Tween-80.
Where [3] appears, read: dose: 240.0 mg/kg/injection, schedule: Q01DX005 (ip), vehicle: saline with Tween-80.
[4] abbreviates: dose: 50.0 mg/kg/injection, schedule: Q01DX005 (ip), vehicle: Klucel (hydroxypropylcellulose) (HPC).
[5] abbreviates: dose: 100.0 mg/kg/injection, schedule: Q01DX005 (ip), vehicle: Klucel (hydroxypropylcellulose) (HPC).
The mark [6] stands for this setting: dose: 200.0 mg/kg/injection, schedule: Q01DX005 (ip), vehicle: Klucel (hydroxypropylcellulose) (HPC).
The mark [7] stands for this setting: dose: 50.0 mg/kg/injection, schedule: Q01DX005 (ip), vehicle: saline.
Setting [8] is: dose: 100.0 mg/kg/injection, schedule: Q01DX005 (ip), vehicle: saline.
[9] abbreviates: dose: 200.0 mg/kg/injection, schedule: Q01DX005 (ip), vehicle: saline.
The mark [10] stands for this setting: dose: 50.0 mg/kg/injection, schedule: Q01DX009 (ip), vehicle: Klucel (hydroxypropylcellulose) (HPC).
[11] abbreviates: dose: 100.0 mg/kg/injection, schedule: Q01DX009 (ip), vehicle: Klucel (hydroxypropylcellulose) (HPC).
The mark [12] stands for this setting: dose: 200.0 mg/kg/injection, schedule: Q01DX009 (ip), vehicle: Klucel (hydroxypropylcellulose) (HPC).

Molecules are shown by their SMILES. Values joined by “and” are separate entries in the source; they are usually repeats but may differ in a detail not shown here. Equal entries are not always repeated. Toxic doses and inconclusive results are not listed. Peptide text beside a SMILES is read from it. * marks the point of attachment. For = O=C*

Consider `CCOc1c(N=Nc2ccccc2)c(C)nn1C(=S)S`, for which the T/C (dose: 60.0 mg/kg/injection, schedule: Q01DX005 (ip), vehicle: Klucel + Tween-80) was 101 % of control; the T/C (dose: 120.0 mg/kg/injection, schedule: Q01DX005 (ip), vehicle: Klucel + Tween-80) was 101 % of control; the T/C (dose: 240.0 mg/kg/injection, schedule: Q01DX005 (ip), vehicle: Klucel + Tween-80) is 100 % of control.

In the case of `C/C=C\C(C)=C/C(C)C(=O)CC(O)CC1CC(=O)NC(=O)C1` (stereo not given), the T/C reads like this: (dose: 1.56 mg/kg/injection, schedule: Q01DX009 (ip), vehicle: DMSO) 91 % of control; (dose: 3.12 mg/kg/injection, schedule: Q01DX009 (ip), vehicle: DMSO) 98 % of control; (dose: 6.25 mg/kg/injection, schedule: Q01DX009 (ip), vehicle: DMSO) 93 % of control; (dose: 12.5 mg/kg/injection, schedule: Q01DX009 (ip), vehicle: DMSO) 100 % of control; (dose: 25.0 mg/kg/injection, schedule: Q01DX009 (ip), vehicle: DMSO) 107 % of control.

`CC1=C(Br)S(=O)(=O)N(c2ccccc2)C(CBr)=C1Br`: the T/C by setting is: under setting [1], 100 % of control; under setting [2], 91 % of control; under setting [3], 93 % of control.

For the molecule `C[CH2][Sn]([CH2]C)([O]P(=O)(C[Si](C)(C)C)c1ccccc1)[O]P(=O)(C[Si](C)(C)C)c1ccccc1` (stereo not given), the T/C (dose: 30.0 mg/kg/injection, schedule: Q01DX005 (ip), vehicle: saline with Tween-80) is 115 % of control and the T/C under setting [2] was 151 % of control.

On to `CC1=C(C)[C@]2(C)C(C)[C@]13Cn1c(=O)n(-c4ccccc4)c(=O)n1[C@@]32C` (stereo not given in full), for which the T/C under setting [4] is 95 % of control, the T/C under setting [5] is 94 % of control and the T/C under setting [6] was 100 % of control.

As for `CC1=C2CCC3(C)C(=C2OC1=O)C(C)=C(Cl)C(Cl)C3Cl` (stereo not given), the T/C is 113 % of control under setting [4], 119 % of control under setting [5] and 115 % of control under setting [6].

As for `COc1ccccc1OCC(=O)c1ccccc1`, the T/C is 102 % of control (dose: 10.0 mg/kg/injection, schedule: Q01DX005 (ip), vehicle: Klucel (hydroxypropylcellulose) (HPC)); 96 % of control (dose: 20.0 mg/kg/injection, schedule: Q01DX005 (ip), vehicle: Klucel (hydroxypropylcellulose) (HPC)); 100 % of control (dose: 40.0 mg/kg/injection, schedule: Q01DX005 (ip), vehicle: Klucel (hydroxypropylcellulose) (HPC)).

Consider `CSCCC(NC=O)C(=O)NC(C(=O)O)C(C)C` (stereo not drawn) (For-Met-Val-OH; configuration not given here), for which the T/C is 101 % of control under setting [4], 97 % of control under setting [5] and 101 % of control under setting [6].

`COC(=O)C1(c2cc3c(cc2OC)N(C)C2CCCCC32)CCCCCc2c1[nH]c1ccccc21` (stereo not given): the T/C is 106 % of control (dose: 12.5 mg/kg/injection, schedule: Q01DX001 (ip), vehicle: distilled water + Tween-80); 100 % of control (dose: 25.0 mg/kg/injection, schedule: Q01DX001 (ip), vehicle: distilled water + Tween-80); 104 % of control (dose: 50.0 mg/kg/injection, schedule: Q01DX001 (ip), vehicle: distilled water + Tween-80); 100 % of control (dose: 100.0 mg/kg/injection, schedule: Q01DX001 (ip), vehicle: distilled water + Tween-80); 97 % of control (dose: 200.0 mg/kg/injection, schedule: Q01DX001 (ip), vehicle: distilled water + Tween-80).

In the case of `NCC1OC(OC2C(CO)OC(OC3C(O)C(N)CC(N)C3OC3OC(CN)C(O)C(O)C3N)C2O)C(N)C(O)C1O` (stereo not given), the T/C (dose: 100.0 mg/kg/injection, schedule: Q01DX001 (ip), vehicle: saline) was 100 % of control and the T/C (dose: 200.0 mg/kg/injection, schedule: Q01DX001 (ip), vehicle: saline) was 96 % of control.

Consider `CC1Nc2nc(N)[nH]c(=O)c2NC1C` (stereo not given), for which the T/C (dose: 25.0 mg/kg/injection, schedule: Q01DX005 (ip), vehicle: saline) was 97 % of control; the T/C under setting [7] is 100 % of control and 97 % of control; the T/C under setting [8] is 101 % of control and 97 % of control; the T/C under setting [9] was 101 % of control and 95 % of control.

Consider `OCC1=C(CO)CC=CC1`, for which the T/C was 96 % of control under setting [1], 96 % of control under setting [2] and 95 % of control under setting [3].

`Nc1cccnc1`: the T/C reads like this: (dose: 5.0 mg/kg/injection, schedule: Q04DX003 (ip), vehicle: saline) 100 % of control; (dose: 10.0 mg/kg/injection, schedule: Q04DX003 (ip), vehicle: saline) 100 % of control; (dose: 20.0 mg/kg/injection, schedule: Q04DX003 (ip), vehicle: saline) 100 % of control.

Turning to `CC(=O)OCC1OC(n2cnc3c(=S)nc[nH]c32)C(OC(C)=O)C1OC(C)=O` (stereo not given), the T/C (dose: 100.0 mg/kg/injection, schedule: Q04DX003 (ip), vehicle: saline with Tween-80) is 109 % of control; the T/C (dose: 200.0 mg/kg/injection, schedule: Q04DX003 (ip), vehicle: saline with Tween-80) was 109 % of control; the T/C (dose: 400.0 mg/kg/injection, schedule: Q04DX003 (ip), vehicle: saline with Tween-80) was 118 % of control.

Regarding `CC(=O)OC1CCC2(C)C(C1)CC(OC(C)=O)C1C2CC(OC(C)=O)C2(C)C(/C(C)=C\C=C(c3ccccc3)c3ccccc3)CCC12` (stereo not given), the T/C was 103 % of control under setting [10], 112 % of control under setting [11] and 121 % of control under setting [12].

Consider `CN(C)C1=c2c(=O)n(C)c(=O)n(C)c2=NC2C=CC=CN12` (stereo not given), for which the T/C was 100 % of control under setting [4], 96 % of control under setting [5] and 86 % of control under setting [6].

In the case of `CC(=O)c1ccc(NC(O)C(Cl)(Cl)Cl)cc1` (stereo not given), the T/C reads like this: (dose: 25.0 mg/kg/injection, schedule: Q01DX009 (ip), vehicle: saline with Tween-80) 99 % of control; (dose: 50.0 mg/kg/injection, schedule: Q01DX009 (ip), vehicle: saline with Tween-80) 96 % of control; (dose: 100.0 mg/kg/injection, schedule: Q01DX009 (ip), vehicle: saline with Tween-80) 103 % of control; (dose: 200.0 mg/kg/injection, schedule: Q01DX009 (ip), vehicle: saline with Tween-80) 107 % of control.

With `COc1ccc2c(c1OC)C[N+]1(C)CCc3cc4c(cc3C1=C2)OCO4` (stereo not given), the T/C by setting is: (dose: 0.63 mg/kg/injection, schedule: Q01DX009 (ip), vehicle: water) 114 % of control; (dose: 1.25 mg/kg/injection, schedule: Q01DX009 (ip), vehicle: water) 108 % of control; (dose: 2.5 mg/kg/injection, schedule: Q01DX009 (ip), vehicle: water) 100 % of control; (dose: 5.0 mg/kg/injection, schedule: Q01DX009 (ip), vehicle: water) 101 % of control; (dose: 10.0 mg/kg/injection, schedule: Q01DX009 (ip), vehicle: water) 110 % of control.

Turning to `COC1=CC=C2Nc3nc(N)[nH]c(=O)c3SC2N1` (stereo not given), the T/C is 99 % of control under setting [1], 90 % of control under setting [2] and 97 % of control under setting [3].

On to `COc1cncn2c(C)nnc12`, for which the T/C under setting [7] was 100 % of control, the T/C under setting [8] is 99 % of control and the T/C under setting [9] was 94 % of control.

For `CCCCCCCCCC(=O)C(=O)c1ccc(O)c(C)c1O`, the T/C under setting [10] was 94 % of control, the T/C under setting [11] was 94 % of control and the T/C under setting [12] is 94 % of control.

Consider `C=CCn1c(C)nc2c(cnn2C)c1=O`, for which the T/C was 101 % of control under setting [4], 110 % of control under setting [5] and 104 % of control under setting [6].

In the case of `CCCCC(NC(=O)OCc1ccccc1)C(=O)NC(CC(C)C)C(=O)O` (stereo not given), the T/C is, setting by setting: under setting [4], 100 % of control; under setting [5], 100 % of control; under setting [6], 92 % of control.

As for `COc1ccc(N=NNc2ccc(OC)cc2)cc1`, the T/C runs as follows: (dose: 6.25 mg/kg/injection, schedule: Q01DX009 (ip), vehicle: saline with Tween-80) 104 % of control; (dose: 6.25 mg/kg/injection, schedule: Q04DX003 (ip), vehicle: saline with Tween-80) 95 % of control; (dose: 12.5 mg/kg/injection, schedule: Q01DX009 (ip), vehicle: saline with Tween-80) 104 % of control; (dose: 12.5 mg/kg/injection, schedule: Q04DX003 (ip), vehicle: saline with Tween-80) 108 % of control; (dose: 25.0 mg/kg/injection, schedule: Q04DX003 (ip), vehicle: saline with Tween-80) 116 % of control.

The record behind these values is PubChem BioAssay AID330 (DTP/NCI, 2004).
